Assay results reported in patent US11484543B2, “Compositions and methods for diagnosing and treating diseases and disorders associated with mutant KCNJ5” (The Rockefeller University, priority 2017, dated 2022).
Positions count from the first letter of the chain named.

How the values were obtained:
Assay type in all cases: cell-based
KCNJ5^G151R = target: T1, KCNJ5^G151R (Homo sapiens, UniProt P48544, G151R); assay: cell-based; conditions: for G151R maximum inhibition / G151R minimum inhibition / IC50: 10-point dilution 20 to 0.0391 μM, N=3, four-parameter fit
T1 construct: expressed in transfected cells
T1 sequence (P48544 1-419 G151R): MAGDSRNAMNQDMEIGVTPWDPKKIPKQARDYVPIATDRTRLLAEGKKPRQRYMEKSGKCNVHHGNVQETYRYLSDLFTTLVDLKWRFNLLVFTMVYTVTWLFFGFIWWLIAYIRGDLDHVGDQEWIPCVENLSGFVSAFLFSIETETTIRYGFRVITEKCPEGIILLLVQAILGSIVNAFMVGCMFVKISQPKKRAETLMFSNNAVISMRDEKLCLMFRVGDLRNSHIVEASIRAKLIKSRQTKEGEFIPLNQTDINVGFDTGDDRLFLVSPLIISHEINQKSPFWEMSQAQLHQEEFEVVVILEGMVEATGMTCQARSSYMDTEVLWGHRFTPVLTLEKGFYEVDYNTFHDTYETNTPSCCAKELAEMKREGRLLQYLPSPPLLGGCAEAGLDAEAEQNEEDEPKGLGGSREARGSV
Description: (§1) WT or mutant human KCNJ5 cDNAs (Choi et al., 2011, Science 331:768-772) were subcloned into the pcDNA5/FRT/TO vector using BamHI and HindIII. Single copies of WT or mutant human KCNJ5 cDNAs expressed under the control of tetracycline-inducible promoter were introduced into HEK293 cells using the Flp-in T-Rex System (Invitrogen) according to the manufacturer's instructions. Cells were grown in selective media containing 10% Tet-system approved FBS (Clontech) until induction.
(§2) Assay plates were centrifuged and incubated overnight at 37° C. 20 nL was transferred from the compound source plate to the cell assay plate using an Aquarius (Tecan) with a 384-well pin tool (V&P Scientific). The final concentration of compound for screening was 10 μM and the final DMSO concentration was 0.1%. 1 μL of tetracycline (final concentration 1 μg/mL) was added to compound containing and negative control wells by Multidrop Combi to induce expression. 1 μL of media was added to positive control wells. Assay plates were centrifuged and incubated for 72 hours at 37° C., 5% CO2. CellTiter-Glo (Promega) was used to measure cell viability in the assay wells according to the manufacturer's instructions. 10 μL/well of CellTiter-Glo reagent was added to the assay plates using a MultiDrop Combi. The plates were shaken on a Thermomixer R (Eppendorf) at 1100 rpm for 1 minute and incubated in the dark for 10 minutes at room temperature. Luminescence was read on an Envision plate reader (PerkinElmer) with 0.3 second sampling time per well. Raw data (luminescence counts per second) was normalized to percent effect by the formula 100−(((sample−negative control mean)/(positive control mean−negative control mean))*100).
(§3) Data was analyzed using the programs Excel (Microsoft) and Prism (GraphPad). Errors are SD unless otherwise indicated in the legend. Dose-response curves were fitted with a four-parameter logistic equation: F(x)=D+(A−D)/(1+(x/C)^B), with A=minimum inhibition B=Hill's slope C=inflection point D=maximum inhibition Synthesis of Macrolide Derivatives
(§4) Cellular ATP levels were measured as a proxy for cell viability, using a commercially available luciferase assay (Crouch et al., 1993, Proc. Natl. Acad. Sci. U.S.A. 109:2533-2538).
(§5) Conditions were designed to maximize reproducibility and the signal-to-background ratios (S/B) (Zhang et al., 1999, J. Biomol. Screen 4:67-73) comparing ATP level in uninduced and induced cells. Screening was performed in 384-well plates; compounds were added 24 hours after plating, and channel expression was induced immediately after compound addition. ATP levels were measured 72 hours after induction.
Levels of ATP in uninduced and induced cells without added test compound defined 100% and 0% effect, respectively, and served as a proxy for lethality.

KCNJ5^L168R = target: T2, KCNJ5^L168R (Homo sapiens, UniProt P48544, L168R); assay: Cell viability assay (ATP, CellTiter-Glo): rescue of KCNJ5^L168R-induced lethality in inducible HEK293 cells; conditions: for IC50 / L168R maximum inhibition / L168R minimum inhibition / L168R IC50: 10-point dilution 20 to 0.0391 μM, N=3, four-parameter fit; for dose response on KCNJ5^L168R: tested at 1.1, 3.3 and 10 μM
T2 construct: expressed in transfected cells
T2 sequence (P48544 1-419 L168R): T1 sequence (P48544 1-419 G151R) with R151G, L168R
Description: as §1, §2, §3, §4, §5

KCNJ5^WT = target: T3, KCNJ5^WT (Homo sapiens, UniProt P48544); assay: Membrane potential assay (FLIPR dye) in inducible KCNJ5^WT HEK293 cells; conditions: for WT IC50: 10-point dilution 20 to 0.0391 μM, N=3, four-parameter fit
T3 construct: expressed in transfected cells
T3 sequence (P48544 1-419): T1 sequence (P48544 1-419 G151R) with R151G
Description: as §1, with “Single” for “WT or mutant human KCNJ5 cDNAs (Choi et al., 2011, Science 331:768-772) were subcloned into the pcDNA5/FRT/TO vector using BamHI and HindIII. Single”
20 μL of WT cells were plated into sterile black with clear bottom tissue culture-treated 384-well plates (Corning) at a density of 10000 cells/well using a Multidrop Combi. Assay plates were centrifuged at 500 rpm for 10 seconds and incubated overnight at 37° C. in a humidified 5% CO2 incubator. After the overnight incubation, 1 μL of tetracycline (final conc. 1 μg/mL) was added to all wells by Multidrop Combi to induce KCNJ5. Assay plates were centrifuged at 500 rpm for 10 seconds and incubated overnight at 37° C. in a humidified 5% CO2 incubator. The next day, 10 μL of medium was removed from each well using a PlateMate Plus (Thermo Scientific). 10 μL of Blue Formula FLIPR membrane potential dye (Molecular Devices) was added to cells using a Multichannel pipettor. Assay plates were incubated for 30 minutes. at 37° C. After incubation, 20 nL was transferred twice from the compound source plate to the cell assay plate using an Aquarius with a 384-well pin tool for a total transfer volume of 40 nL and a final DMSO concentration of 0.2%. 1 μL of 20 mM BaCl2 was added to positive control wells using a Multichannel pipettor. The assay plate was incubated 20 minutes at room temperature in the dark.
Changes in membrane potential were detected using a well-established fluorescence-based measure of membrane potential (FIG. 4).

[1] = tested as in FIG. 7 (FIGS. 9 and 10)

CC[C@H]1OC(=O)[C@H](C)[C@@H](O[C@H]2C[C@@](C)(OC)[C@@H](O)[C@H](C)O2)[C@H](C)[C@@H](O[C@@H]2O[C@H](C)C[C@H](N(C)C)[C@H]2O)[C@](C)(O)C[C@@H](C)CN(C)[C@H](C)[C@@H](O)[C@]1(C)O [Azithromycin, azithromycin]
G151R maximum inhibition (KCNJ5^G151R): 32.00%
G151R minimum inhibition (KCNJ5^G151R): 5.11%
IC50 (KCNJ5^G151R): 5.69 µM
IC50 (KCNJ5^L168R): 8.05 µM
L168R maximum inhibition (KCNJ5^L168R): 12.01%
L168R minimum inhibition (KCNJ5^L168R): 0.71%
WT IC50 (KCNJ5^WT): No fit

CC[C@H]1OC(=O)[C@H](C)[C@@H](O[C@H]2C[C@@](C)(OC)[C@@H](O)[C@H](C)O2)[C@H](C)[C@@H](O[C@@H]2O[C@H](C)C[C@H](N(C)C)[C@H]2O)[C@](C)(OC)C[C@@H](C)C(=O)[C@H](C)[C@@H](O)[C@]1(C)O [Clarithromycin, clarithromycin]
G151R maximum inhibition (KCNJ5^G151R): 83.09%
G151R minimum inhibition (KCNJ5^G151R): 6.40%
IC50 (KCNJ5^G151R): 0.71 µM
inhibition of KCNJ5^MUT (structure-activity statement) (KCNJ5^G151R; macrolide series, dilution curves): potent effects
IC50 (KCNJ5^L168R): 1.72 µM
L168R maximum inhibition (KCNJ5^L168R): 55.70%
L168R minimum inhibition (KCNJ5^L168R): 2.35%
dose response on KCNJ5^L168R (KCNJ5^L168R): showed a dose response
WT IC50 (KCNJ5^WT): No fit

CC[C@@H](O)[C@@](C)(O)[C@@H]1OC(=O)[C@H](C)[C@@H](O[C@H]2C[C@@](C)(OC)[C@@H](O)[C@H](C)O2)[C@H](C)[C@@H](O[C@@H]2O[C@H](C)C[C@H](N(C)C)[C@H]2O)[C@@]2(C)CC(C)=C(O2)[C@@H]1C [Pseudo Erythromycin A Enol Ether, pseudo erythromycin A enol ether]
G151R maximum inhibition (KCNJ5^G151R): 11.13%
G151R minimum inhibition (KCNJ5^G151R): 1.58%
IC50 (KCNJ5^G151R): 0.65 µM
L168R IC50 (KCNJ5^L168R): No Fit
WT IC50 (KCNJ5^WT): No fit

N-demethyl-8,9-anhydroerythromycin A 6,9-hemiacetal [PLUX36]
inhibition of KCNJ5^G151R by synthesized macrolide derivatives (KCNJ5^G151R; [1]): significant inhibition
inhibition of KCNJ5^L168R by synthesized macrolide derivatives (KCNJ5^L168R; [1]): significant inhibition
inhibition of KCNJ5^WT by synthesized macrolide derivatives (KCNJ5^WT; [1]): no inhibition

CC[C@H]1OC(=O)[C@H](C)[C@@H](O[C@H]2C[C@@](C)(OC)[C@@H](O)[C@H](C)O2)[C@H](C)[C@@H](O[C@@H]2O[C@H](C)C[C@H](N(C)C)[C@H]2O)[C@@]2(C)C[C@@H](C)[C@@]3(O[C@@]1(C)[C@H](O)[C@H]3C)O2 [Anhydroerythromycin A, anhydroerythromycin A]
G151R maximum inhibition (KCNJ5^G151R): 60.00%
G151R minimum inhibition (KCNJ5^G151R): 5.61%
IC50 (KCNJ5^G151R): 8.6 µM
L168R IC50 (KCNJ5^L168R): No fit
WT IC50 (KCNJ5^WT): No fit

CC[C@H]1OC(=O)[C@H](C)[C@@H](O[C@H]2C[C@@](C)(OC)[C@@H](O)[C@H](C)O2)[C@H](C)[C@@H](O[C@@H]2O[C@H](C)C[C@H](N(C)C)[C@H]2O)[C@](C)(O)C[C@@H](C)C(=NO)[C@H](C)[C@@H](O)[C@]1(C)O [Erythromycin A Oxime, erythromycin A oxime]
G151R maximum inhibition (KCNJ5^G151R): 84.11%
G151R minimum inhibition (KCNJ5^G151R): 2.49%
IC50 (KCNJ5^G151R): 2.88 µM
IC50 (KCNJ5^L168R): 8.13 µM
L168R maximum inhibition (KCNJ5^L168R): 60.00%
L168R minimum inhibition (KCNJ5^L168R): 0.65%
dose response on KCNJ5^L168R (KCNJ5^L168R): showed a dose response
WT IC50 (KCNJ5^WT): No fit

CC[C@H]1OC(=O)[C@H](C)[C@@H](O[C@H]2C[C@@](C)(OC)[C@@H](O)[C@H](C)O2)[C@H](C)[C@@H](O[C@@H]2O[C@H](C)C[C@H](N(C)C)[C@H]2O)[C@](C)(O)C[C@@H](C)C(=O)[C@H](C)[C@@H](O)[C@H]1C [Erythromycin B, erythromycin B]
G151R maximum inhibition (KCNJ5^G151R): 84.36%
G151R minimum inhibition (KCNJ5^G151R): 7.15%
IC50 (KCNJ5^G151R): 1.23 µM
IC50 (KCNJ5^L168R): 4.73 µM
L168R maximum inhibition (KCNJ5^L168R): 80.00%
L168R minimum inhibition (KCNJ5^L168R): 1.62%
WT IC50 (KCNJ5^WT): No fit
